A value given as a limit tells only on which side of the number the result lay.

The values below come from US8901118B2, “Compounds and methods for kinase modulation, and indications therefor” (Plexxikon Inc., priority 2010, dated 2014).

The target in series [1] is CYP2C9 (Homo sapiens, UniProt P11712). Nature of the series: CYP2C9 inhibition (fluorescent substrate MFC). Format: in vitro ADME. Conditions: read-out: Cyp IC50 2C9. A digest of the protocol:
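Test compounds, 10-point 1:1 serial dilutions in NADPH-regenerating cofactor mix, were preincubated 10 min at 37° C before recombinant enzyme and fluorogenic substrate reactions at 37° C (CYP1A2 15 min; CYP2C9 45 min; CYP2C19, 2D6 30 min). Product fluorescence was read at 409 ex with 460 em (1A2, 2C19) or 530 em (2C9, 2D6), and IC50 fitted from signal versus concentration.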

In series [2] the target is TrkA kinase (Homo sapiens, UniProt P04629). The series is described as follows: TrkA kinase biochemical activity assay (AlphaScreen). Conditions: 100 μM ATP; read-out: Biochemical Inhibition IC50 TrkA. The method in brief: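 Recombinant TrkA with 30 nM biotin-(E4Y)10 and 100 μM ATP in 25 mM Hepes pH 7.5, 10 mM MnCl2, 5% DMSO, 40 min at room temperature. Phosphorylation read by AlphaScreen (streptavidin donor, PY20 acceptor beads); IC50 from signal vs compound concentration. TrkC run similarly.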
Chain of TrkA kinase (P04629 33-796): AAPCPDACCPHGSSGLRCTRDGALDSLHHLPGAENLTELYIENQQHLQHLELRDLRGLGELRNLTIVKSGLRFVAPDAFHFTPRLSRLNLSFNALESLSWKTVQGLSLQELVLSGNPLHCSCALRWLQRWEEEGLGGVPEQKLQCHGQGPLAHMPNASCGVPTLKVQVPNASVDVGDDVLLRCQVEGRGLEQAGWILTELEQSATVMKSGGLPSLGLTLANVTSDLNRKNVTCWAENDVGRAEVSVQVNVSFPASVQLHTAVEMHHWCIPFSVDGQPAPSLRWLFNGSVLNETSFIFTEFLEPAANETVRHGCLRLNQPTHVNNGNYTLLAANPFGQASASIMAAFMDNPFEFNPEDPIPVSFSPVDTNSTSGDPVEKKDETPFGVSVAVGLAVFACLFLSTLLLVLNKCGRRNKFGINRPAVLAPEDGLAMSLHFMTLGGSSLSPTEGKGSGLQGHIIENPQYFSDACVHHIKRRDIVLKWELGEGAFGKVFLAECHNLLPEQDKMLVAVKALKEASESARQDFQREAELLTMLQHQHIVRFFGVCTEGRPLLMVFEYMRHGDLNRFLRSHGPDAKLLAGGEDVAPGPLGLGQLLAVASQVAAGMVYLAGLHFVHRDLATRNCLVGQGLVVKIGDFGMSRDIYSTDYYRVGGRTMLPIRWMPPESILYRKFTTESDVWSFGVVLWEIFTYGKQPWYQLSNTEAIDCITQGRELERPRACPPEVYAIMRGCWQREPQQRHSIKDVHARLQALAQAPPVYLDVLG
A general note: Bead proximity is the source of the signal in Alpha formats.

Series [3] deals with CYP3A4(BQ) (Homo sapiens, UniProt P08684). The series is described as follows: CYP3A4(BQ) inhibition. Format: in vitro ADME. Conditions: CYP3A4, substrate BQ; read-out: Cyp IC50 3A4(BQ). The method in brief:
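Inhibition of human CYP3A4 (BQ substrate) was measured by fluorescence, since blocking metabolism of a known substrate lowers the fluorescent product signal. Compounds dissolved in DMSO at 100 mM were diluted into acetonitrile and then into NADPH regeneration cofactor mix, serially diluted 1:1 across 10 points, and preincubated in 384 well plates for 10 minutes at 37° C.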

A short description of series [4]: Relative solubility by turbidity in aqueous buffers (pH 1.5, 4.5, 6.8, 7.4). It counts as physicochemical. Conditions: for turbidity threshold (L, M, H) 1.4: pH 1.5 (SGF); for turbidity threshold (L, M, H) 4.5: pH 4.5 (SIF); for turbidity threshold (L, M, H) 6.8: pH 6.8 (SIF); for turbidity threshold (L, M, H) 7.4: pH 7.4 (HEPES). A digest of the protocol: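 Twofold DMSO dilutions of a 25 mM stock were spiked into SGF (0.5M NaCl, pH 1.5), SIF (0.05M NaH2PO4, pH 4.5 and 6.8) or HEPES buffer (10 mM HEPES, 150 mM NaCl, pH 7.4). Absorbance was read at 490, 535 and 650 nm. The endpoint is the concentration crossing O.D. 0.01, averaged across wavelengths.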

Chain of CYP2C9 (P11712 whole entry): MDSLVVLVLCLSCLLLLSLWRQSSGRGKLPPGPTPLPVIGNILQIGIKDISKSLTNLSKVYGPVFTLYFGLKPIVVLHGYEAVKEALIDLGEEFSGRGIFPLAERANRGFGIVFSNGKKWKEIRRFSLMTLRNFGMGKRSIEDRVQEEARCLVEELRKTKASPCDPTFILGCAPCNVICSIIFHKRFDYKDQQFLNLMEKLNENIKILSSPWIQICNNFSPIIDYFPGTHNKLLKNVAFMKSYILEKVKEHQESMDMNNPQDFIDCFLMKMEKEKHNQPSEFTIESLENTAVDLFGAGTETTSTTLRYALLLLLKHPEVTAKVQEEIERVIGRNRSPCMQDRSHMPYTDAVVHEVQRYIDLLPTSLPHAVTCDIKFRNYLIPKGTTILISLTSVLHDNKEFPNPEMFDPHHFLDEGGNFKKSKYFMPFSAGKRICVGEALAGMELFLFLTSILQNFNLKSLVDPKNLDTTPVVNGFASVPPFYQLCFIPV
Chain of CYP3A4(BQ) (P08684 whole entry): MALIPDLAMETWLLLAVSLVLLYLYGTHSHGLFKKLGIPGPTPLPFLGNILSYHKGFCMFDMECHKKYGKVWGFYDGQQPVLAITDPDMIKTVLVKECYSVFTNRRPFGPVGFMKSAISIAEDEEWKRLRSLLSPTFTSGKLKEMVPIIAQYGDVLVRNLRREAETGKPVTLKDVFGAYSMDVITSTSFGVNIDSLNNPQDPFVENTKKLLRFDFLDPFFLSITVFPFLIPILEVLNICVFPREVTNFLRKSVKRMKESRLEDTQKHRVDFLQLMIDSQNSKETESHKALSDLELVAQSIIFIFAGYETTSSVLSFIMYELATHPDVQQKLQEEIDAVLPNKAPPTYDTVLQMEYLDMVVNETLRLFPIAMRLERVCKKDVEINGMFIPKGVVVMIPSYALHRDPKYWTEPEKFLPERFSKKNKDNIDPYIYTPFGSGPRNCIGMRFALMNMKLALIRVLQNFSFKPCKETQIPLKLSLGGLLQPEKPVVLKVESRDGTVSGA

One may read the IC50 as the concentration that gives 50% inhibition. In the case of `Cc1cnc2[nH]cc(Cc3ccc(NC4CCCCC4)nc3F)c2c1` [Compound P-3008, cyclohexyl-[6-fluoro-5-(5-methyl-1H-pyrrolo[2,3-b]pyridin-3-ylmethyl)-pyridin-2-yl]-amine], the 50% inhibitory concentration (IC50) in series [1] was 5 to 10 µM.
On to `O=C(c1ccc(Nc2ccc(C3CC3)nc2)nc1F)c1c[nH]c2ncnc(C3CC3)c12` [Compound P-4040, [6-(6-Cyclopropyl-pyridin-3-ylamino)-2-fluoro-pyridin-3-yl]-(4-cyclopropyl-7H-pyrrolo[2,3-d]pyrimidin-5-yl)-methanone], for which, in series [2], the IC50 is under 0.01 µM.
As for `Fc1nc(Nc2ccc(C3CC3)nc2)ccc1Cc1c[nH]c2ncnc(C3CC3)c12` [Compound P-4041, (6-Cyclopropyl-pyridin-3-yl)-[5-(4-cyclopropyl-7H-pyrrolo[2,3-d]pyrimidin-5-ylmethyl)-6-fluoro-pyridin-2-yl]-amine], the IC50 was 5 to 10 µM in series [3], under 0.01 µM in series [2] and 5 to 10 µM in series [1].
Turning to `Nc1ncnc2[nH]cc(C(=O)c3ccc(NC4CCC(F)(F)CC4)nc3Cl)c12` [Compound P-4046, (4-amino-7H-pyrrolo[2,3-d]pyrimidin-5-yl)-[2-chloro-6-[(4,4-difluorocyclohexyl)amino]-3-pyridyl]methanone], in series [2], the IC50 was under 1 µM.
As for `CC(C)=CNc1ncnc2[nH]cc(C(=O)c3ccc(NC4CCC(F)(F)CC4)nc3Cl)c12` [Compound P-4047, [2-chloro-6-[(4,4-difluorocyclohexyl)amino]-3-pyridyl]-[4-(2-methylprop-1-enylamino)-7H-pyrrolo[2,3-d]pyrimidin-5-yl]methanone], the IC50 in series [3] is over 10 µM; in series [2], over 1 µM; in series [1] it was over 10 µM.
Turning to `Nc1ncnc2[nH]cc(C(=O)c3ccc(Nc4ccc(C5CC5)nc4)nc3F)c12` [Compound P-4048, (4-amino-7H-pyrrolo[2,3-d]pyrimidin-5-yl)-[6-[(6-cyclopropyl-3-pyridyl)amino]-2-fluoro-3-pyridyl]methanone], the IC50 in series [3] was over 10 µM. Moreover, the IC50 in series [2] is under 0.01 µM. Besides, in series [4], the “turbidity threshold (L, M, H) 1.4” value was “H (high solubility if the threshold concentration is >250 μm)”; the “turbidity threshold (L, M, H) 4.5” value is given as “M (moderate solubility if the threshold concentration is 31.3 μM to 250 μM)”; the “turbidity threshold (L, M, H) 6.8” value is recorded as “M (moderate solubility if the threshold concentration is 31.3 μM to 250 μM)”; the “turbidity threshold (L, M, H) 7.4” value was “M (moderate solubility if the threshold concentration is 31.3 μM to 250 μM)”. Moreover, the IC50 in series [1] is over 10 µM.
`CC(C)(O)CNc1ncnc2[nH]cc(C(=O)c3ccc(Nc4ccc(C5CC5)nc4)nc3F)c12` [Compound P-4049, [6-[(6-cyclopropyl-3-pyridyl)amino]-2-fluoro-3-pyridyl]-[4-[(2-hydroxy-2-methyl-propyl)amino]-7H-pyrrolo[2,3-d]pyrimidin-5-yl]methanone]: in series [3], the IC50 is over 10 µM. Further, the IC50 in series [2] is under 0.01 µM. For the same molecule, in series [4], the “turbidity threshold (L, M, H) 1.4” value is given as “H (high solubility if the threshold concentration is >250 μm)”; the “turbidity threshold (L, M, H) 4.5” value is listed as “L (low solubility if the threshold concentration is <31.3 μM)”; the “turbidity threshold (L, M, H) 6.8” value is reported as “L (low solubility if the threshold concentration is <31.3 μM)”; the “turbidity threshold (L, M, H) 7.4” value is “L (low solubility if the threshold concentration is <31.3 μM)”. In series [1], the IC50 lay within 5 to 10 µM.
For `CCNc1ncnc2[nH]cc(C(=O)c3ccc(NC4CCC(F)(F)CC4)nc3Cl)c12` [Compound P-4050, [2-chloro-6-[(4,4-difluorocyclohexyl)amino]-3-pyridyl]-[4-(ethylamino)-7H-pyrrolo[2,3-d]pyrimidin-5-yl]methanone], the IC50 in series [3] is over 10 µM. In series [2], the IC50 was under 1 µM. Also, in series [4], the “turbidity threshold (L, M, H) 1.4” value was “H (high solubility if the threshold concentration is >250 μm)”; the “turbidity threshold (L, M, H) 4.5” value is recorded as “L (low solubility if the threshold concentration is <31.3 μM)”; the “turbidity threshold (L, M, H) 6.8” value is given as “L (low solubility if the threshold concentration is <31.3 μM)”; the “turbidity threshold (L, M, H) 7.4” value is “L (low solubility if the threshold concentration is <31.3 μM)”. In series [1], the IC50 is over 10 µM.
On to `CCNc1ncnc2[nH]cc(C(=O)c3cnc(NC4CCC(F)(F)CC4)c(F)c3)c12` [Compound P-4051, [6-[(4,4-difluorocyclohexyl)amino]-5-fluoro-3-pyridyl]-[4-(ethylamino)-7H-pyrrolo[2,3-d]pyrimidin-5-yl]methanone], for which, in series [3], the IC50 was over 10 µM. The IC50 in series [2] is under 0.01 µM. In series [4], the “turbidity threshold (L, M, H) 1.4” value is recorded as “H (high solubility if the threshold concentration is >250 μm)”; the “turbidity threshold (L, M, H) 4.5” value is listed as “M (moderate solubility if the threshold concentration is 31.3 μM to 250 μM)”; the “turbidity threshold (L, M, H) 6.8” value is recorded as “M (moderate solubility if the threshold concentration is 31.3 μM to 250 μM)”; the “turbidity threshold (L, M, H) 7.4” value is given as “L (low solubility if the threshold concentration is <31.3 μM)”. In addition, the IC50 in series [1] was over 10 µM.
Take `O=C(c1cnc(NC2CCC(F)(F)CC2)c(F)c1)c1c[nH]c2ncnc(NCC(F)(F)F)c12` [Compound P-4052, [6-[(4,4-difluorocyclohexyl)amino]-5-fluoro-3-pyridyl]-[4-(2,2,2-trifluoroethylamino)-7H-pyrrolo[2,3-d]pyrimidin-5-yl]methanone]: the IC50 in series [3] was over 10 µM. Moreover, the half-inhibitory concentration (IC50) in series [2] is under 1 µM. Besides, in series [4], the “turbidity threshold (L, M, H) 1.4” value was “L (low solubility if the threshold concentration is <31.3 μM)”; the “turbidity threshold (L, M, H) 4.5” value is listed as “L (low solubility if the threshold concentration is <31.3 μM)”; the “turbidity threshold (L, M, H) 6.8” value is on record as “L (low solubility if the threshold concentration is <31.3 μM)”; the “turbidity threshold (L, M, H) 7.4” value was “L (low solubility if the threshold concentration is <31.3 μM)”. The IC50 in series [1] was over 10 µM.
As to `O=C(c1cnc(NC2CCC(F)(F)CC2)c(F)c1)c1c[nH]c2ncnc(NC3CC3)c12` [Compound P-4053, [4-(cyclopropylamino)-7H-pyrrolo[2,3-d]pyrimidin-5-yl]-[6-[(4,4-difluorocyclohexyl)amino]-5-fluoro-3-pyridyl]methanone], the half-inhibitory concentration (IC50) in series [3] is over 10 µM. Further, the IC50 in series [2] is under 0.01 µM. For the same molecule, in series [4], the “turbidity threshold (L, M, H) 1.4” value is reported as “H (high solubility if the threshold concentration is >250 μm)”; the “turbidity threshold (L, M, H) 4.5” value was “M (moderate solubility if the threshold concentration is 31.3 μM to 250 μM)”; the “turbidity threshold (L, M, H) 6.8” value was “M (moderate solubility if the threshold concentration is 31.3 μM to 250 μM)”; the “turbidity threshold (L, M, H) 7.4” value is “M (moderate solubility if the threshold concentration is 31.3 μM to 250 μM)”. Moreover, the IC50 in series [1] is over 10 µM.
Consider `CNc1ncnc2[nH]cc(C(=O)c3cnc(NC4CCC(F)(F)CC4)c(F)c3)c12` [Compound P-4054, [6-[(4,4-difluorocyclohexyl)amino]-5-fluoro-3-pyridyl]-[4-(methylamino)-7H-pyrrolo[2,3-d]pyrimidin-5-yl]methanone], for which the 50% inhibitory concentration (IC50) in series [3] is over 10 µM. The IC50 in series [2] is under 0.1 µM. Also, in series [4], the “turbidity threshold (L, M, H) 1.4” value is listed as “H (high solubility if the threshold concentration is >250 μm)”; the “turbidity threshold (L, M, H) 4.5” value is on record as “M (moderate solubility if the threshold concentration is 31.3 μM to 250 μM)”; the “turbidity threshold (L, M, H) 6.8” value is “M (moderate solubility if the threshold concentration is 31.3 μM to 250 μM)”; the “turbidity threshold (L, M, H) 7.4” value is “M (moderate solubility if the threshold concentration is 31.3 μM to 250 μM)”. Moreover, the IC50 in series [1] is over 10 µM.
